In ChEMBL document CHEMBL1154955, “Discovery of potent and selective bicyclic A(2B) adenosine receptor antagonists via bioisosteric amide replacement” (Bioorg Med Chem Lett, 2010):
In brackets after ≈: the same amount, converted by molar mass.

What was measured:
[1] = Cmax in rat at 1 mg/kg, iv; format: ADME, organism-based; parameters: dose 1 mg/kg, route intravenous; conditions: in vivo
[2] = Metabolic stability in rat liver microsomes assessed as turnover at 5 uM after 30 mins in absence of NADPH; format: ADME, Microsome; conditions: read-out: Stability
Adenosine receptor A3 = molecular target: T1, Adenosine receptor A3 (Homo sapiens, UniProt P0DMS8); experiment: Displacement of [3H]NECA from human adenosine A3 receptor expressed in human HeLa cells after 3 hrs by filtration binding assay; format: cell-based
T1 sequence (P0DMS8 whole entry): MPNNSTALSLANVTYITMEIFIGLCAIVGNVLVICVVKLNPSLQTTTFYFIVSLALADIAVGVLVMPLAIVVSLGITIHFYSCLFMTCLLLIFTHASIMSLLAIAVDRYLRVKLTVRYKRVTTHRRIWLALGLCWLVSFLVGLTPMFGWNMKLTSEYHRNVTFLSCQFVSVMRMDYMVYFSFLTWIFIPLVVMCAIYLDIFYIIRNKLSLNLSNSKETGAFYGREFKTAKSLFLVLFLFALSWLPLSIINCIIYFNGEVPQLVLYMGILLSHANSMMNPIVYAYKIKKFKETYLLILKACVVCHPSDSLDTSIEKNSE

[3] = Terminal half life in rat at 1 mg/kg, iv; format: ADME, organism-based; parameters: dose 1 mg/kg, route intravenous; conditions: in vivo
Adenosine receptor A1 = molecular target: T2, Adenosine receptor A1 (Homo sapiens, UniProt P30542); experiment: Displacement of [3H]DPCPX from human adenosine A1 receptor expressed in CHO cells after 90 mins by filtration binding assay; format: cell-based
T2 sequence (P30542 whole entry): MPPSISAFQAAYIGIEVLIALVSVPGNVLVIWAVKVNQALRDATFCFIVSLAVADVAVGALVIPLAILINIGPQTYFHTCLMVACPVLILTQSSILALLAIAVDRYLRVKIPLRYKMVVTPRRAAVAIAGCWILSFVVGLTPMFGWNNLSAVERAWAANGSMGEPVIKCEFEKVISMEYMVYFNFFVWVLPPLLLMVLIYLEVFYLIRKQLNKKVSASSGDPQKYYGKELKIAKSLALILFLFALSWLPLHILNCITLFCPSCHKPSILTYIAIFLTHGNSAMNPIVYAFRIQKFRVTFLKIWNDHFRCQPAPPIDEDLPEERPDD

Adenosine receptor A2a = Adenosine receptor A2a (Homo sapiens, UniProt P29274); experiment: Displacement of [3H]ZM241385 from human adenosine A2A receptor expressed in human HeLa cells after 1 hr by scintillation proximity assay; format: cell-based
[4] = Volume of distribution at steady state in rat at 1 mg/kg, iv; format: ADME, organism-based; parameters: dose 1 mg/kg, route intravenous; conditions: in vivo, read-out: Vdss
Adenosine receptor A2b = molecular target: T3, Adenosine receptor A2b (Homo sapiens, UniProt P29275); experiment: Displacement of [3H]DPCPX from human adenosine A2B receptor expressed in HEK293 cells after 60 mins by filtration binding assay; format: cell-based
T3 sequence (P29275 whole entry): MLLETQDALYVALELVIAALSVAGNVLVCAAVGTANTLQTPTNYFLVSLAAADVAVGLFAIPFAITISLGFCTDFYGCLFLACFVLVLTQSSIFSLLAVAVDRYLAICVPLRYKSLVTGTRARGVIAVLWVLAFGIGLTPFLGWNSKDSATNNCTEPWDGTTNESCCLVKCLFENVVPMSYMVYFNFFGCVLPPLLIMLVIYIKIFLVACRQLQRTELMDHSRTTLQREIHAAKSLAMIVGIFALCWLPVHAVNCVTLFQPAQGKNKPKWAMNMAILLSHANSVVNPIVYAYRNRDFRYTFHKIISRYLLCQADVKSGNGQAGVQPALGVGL

[5] = Clearance in rat at 1 mg/kg, iv; format: ADME, organism-based; parameters: dose 1 mg/kg, route intravenous; conditions: in vivo
[6] = AUC (0 to infinity) in rat at 1 mg/kg, iv; format: ADME, organism-based; parameters: time infinity, dose 1 mg/kg, route intravenous; conditions: plasma
[7] = Thermodynamic solubility at pH 7.4; format: physicochemical; conditions: buffer
[8] = Apparent permeability across human Caco-2 cells at 12.5 uM; format: ADME, cell-based; conditions: read-out: permeability
[9] = molecular target: T4, Adenosine receptor A3 (Homo sapiens) (UniProt P0DMS8); experiment: Inhibition of [3H]NECA binding to human adenosine A3 receptor expressed in human HeLa cells at 1 uM after 3 hrs by filtration binding assay; format: cell-based
T4 sequence (whole entry): T1 sequence (P0DMS8 whole entry)

[10] = Oral bioavailability in rat at 10 mg/kg; format: ADME, organism-based; conditions: in vivo

Adenosine receptor A2a, sequence (P29274 whole entry): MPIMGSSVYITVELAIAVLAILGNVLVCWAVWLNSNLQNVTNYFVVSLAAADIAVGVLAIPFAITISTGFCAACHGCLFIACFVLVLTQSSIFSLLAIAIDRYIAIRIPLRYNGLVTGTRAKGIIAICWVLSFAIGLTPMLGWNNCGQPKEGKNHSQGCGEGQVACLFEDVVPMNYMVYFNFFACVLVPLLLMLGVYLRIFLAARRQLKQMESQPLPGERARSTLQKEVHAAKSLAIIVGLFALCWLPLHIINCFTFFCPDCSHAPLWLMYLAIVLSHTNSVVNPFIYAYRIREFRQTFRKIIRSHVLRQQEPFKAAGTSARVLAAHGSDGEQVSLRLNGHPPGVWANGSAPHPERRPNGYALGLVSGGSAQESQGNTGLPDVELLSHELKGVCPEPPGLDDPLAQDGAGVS

| Structure (SMILES) | Cmax [1] | metabolised at 0.5 h, 5 µM [2] | Ki (Adenosine receptor A3) | half-life [3] | Ki (Adenosine receptor A1) | Ki (Adenosine receptor A2a) | Vd [4] | Ki (Adenosine receptor A2b) | clearance [5] | AUC(0-inf) [6] | solubility thermodynamic [7] | Papp at 12.5 µM [8] | inhibition [9] | bioavailability [10] |
| --- | --- | --- | --- | --- | --- | --- | --- | --- | --- | --- | --- | --- | --- | --- |
| O=c1[nH]c(=O)c2cc(-c3ccncn3)c(-c3ccco3)nc2[nH]1 | 1680 ng/mL | 0% | 6.27 µM | 24 min | 1730 nM | 181 nM | 0.75 L/kg | 1 nM | 20 mL/min/kg | 880 ng·h/mL | 61 µg/mL (≈ 199 µM) | 20 ×10⁻⁶ cm/s |  |  |
| O=C(Nc1ccc(-c2ccncn2)c(-c2ccco2)n1)C1CC1 |  |  |  |  |  |  |  |  |  |  |  | 45 ×10⁻⁶ cm/s |  |  |
| Cn1c(=O)[nH]c2nc(-c3ccco3)c(-c3ccncn3)cc21 |  | 8% |  |  | 2440 nM | 2130 nM |  | 11 nM |  |  |  | 32 ×10⁻⁶ cm/s | 17% |  |
| O=c1[nH]c2cc(-c3ccncn3)c(-c3ccco3)nc2[nH]1 | 762 ng/mL | 15% |  | 60 min | 317 nM | 769 nM | 1 L/kg | 6 nM | 50 mL/min/kg | 350 ng·h/mL | 48 µg/mL (≈ 172 µM) | 40 ×10⁻⁶ cm/s | 18% | 20% |
| O=c1[nH][nH]c2nc(-c3ccco3)c(-c3ccncn3)cc12 | 1330 ng/mL | 7% |  | 24 min | 82 nM | 177 nM | 0.6 L/kg | 3 nM | 33.3 mL/min/kg | 504 ng·h/mL |  | 3.5 ×10⁻⁶ cm/s | 2% |  |
| c1coc(-c2nc3[nH]cnc3cc2-c2ccncn2)c1 |  | 10% |  |  | 717 nM | 3600 nM |  | 21 nM |  |  |  | 23 ×10⁻⁶ cm/s | 0% |  |
| c1coc(-c2nc3[nH]ncc3cc2-c2ccncn2)c1 | 1050 ng/mL | 17% |  | 36 min | 478 nM | 1660 nM | 0.8 L/kg | 23 nM | 23.3 mL/min/kg | 736 ng·h/mL | 296 µg/mL (≈ 1120 µM) | 39 ×10⁻⁶ cm/s | 2% |  |
| c1coc(-c2nc3[nH]ccc3cc2-c2ccncn2)c1 |  | 88% |  |  | 252 nM | 619 nM |  | 13 nM |  |  |  | 40 ×10⁻⁶ cm/s | 7% |  |
| Nc1n[nH]c2nc(-c3ccco3)c(-c3ccncn3)cc12 | 397 ng/mL | 6% |  | 24 min | 357 nM | 858 nM | 3.7 L/kg | 8 nM | 102 mL/min/kg | 164 ng·h/mL | 204 µg/mL (≈ 733 µM) | 24 ×10⁻⁶ cm/s | 15% |  |
